The values that follow come from US4552877A, “Nb -Quaternary derivatives of sandwicine and isosandwicine methods and intermediate products in the manufacture of their derivatives and methods of using same and pharmaceutical compositions thereof” (Kali-Chemie Pharma GmbH, priority 1979, dated 1985).

Molecules are shown by their SMILES. Structures can show the parent of a compound that is named as a salt. Where two headings read alike, the source gives them in different places.

Data set [1] is described as follows: acute toxicity (LD50, 7th day after application). The format is in vivo, mouse. Particulars: mouse, in vivo, male NMRI-mice, mortality on 7th day. As to the method: (§1) The acute toxicity of the compounds is determined in male NMRI-mice (body weight range 18-22 g) after oral (p.o) and intraperitonal (i.p.) administration. The LD50 is defined as that dose in μmole/kg which causes a 50% mortality rate of the test animals on the 7th day after application. The calculation of the LD50 is carried out by probitanalysis (see L. Cavalli-Sforza, Grundbegriffe der Biometrie, Gustav Fischer Verlag, Stuttgart, (1964)).

The subject of data set [2] is male NMRI-mice. Put plainly: minimum symptom dose (procedure of Campbell and Richter). The format is in vivo, mouse. The note with it: i.p., changes in behavior in 2 out of 3 mice. As to the method:
The minimum symptom dose is determined in male NMRI-mice (body weight range 18-22 g) according to the procedure of Campbell and Richter (see D.E.S. Campbell and W. Richter, Acta Pharmacol Toxicol, 25 (1967), pp 345-363). The minimum symptom dose is defined as that dose in μmol/kg which after i.p. administration causes changes in behavior in 2 out of 3 mice. The minimum symptom dose is a measure for evaluating undesirable side effects.

The subject of data set [3] is isolated left atria of female guinea pigs. Put plainly: functional refractory period (FRP) and contraction force (CF) in isolated left atria, double stimulus method of Govier. Details: species or system guinea pig. Particulars: for IC25 / EC25: Cavia porcellus, 0.3 h; for IC25: read-out: CF (concentration reducing contraction force to 75% of starting value); for EC25: read-out: FRP (concentration prolonging functional refractory period to 125% of starting value); for ratio between contraction force-reducing dose and functional refractory period-prolonging dose (CF/FRP): indication of the therapeutic range of the antiarrhythmic effect on the isolated organ, 18 min. As to the method: The prolongation of the functional refractory period (FRP) and the contraction force (CF) in the isolated left atria of female guinea pigs (albino Pirbright-white guinea pigs, body weight 300-400 g) are determined according to the double stimulus method of Govier (see W.C. Govier, J. Pharmakol. Exp. Ther. 148 (1965) pp 100-105). The concentrations which are given in the table below are the concentrations in μmol/l which 18 minutes after application leads to a prolongation of the functional refractory period to 125% or respectively to a reduction of the contraction force to 75% of the starting value. Furthermore, the ratio between contraction force-reducing dose and functional refractory period-prolonging dose is given. This ratio is an indication of the therapeutic range of the antiarrhythmic effect on the isolate organ (see K. Gref, Verh. Dtsch. Ges. Kreislaufforsch. 35 (1969) pp 88-97).

The test system of data set [4] is male NMRI-mice. Description: acute toxicity (LD50, 7th day after application). The format is in vivo, mouse. The note with it: mortality on 7th day, 10080 min; for LD50 p.o.: oral. Here is the method:
as §1

The mark [5] stands for this setting: ip, intraperitoneal, read-out: LD50 i.p.
Setting [6] is: isolated guinea pig left atria, 18 minutes after application.

Usually LD50 stands for the dose expected to kill half of the subjects tested. For `CCC1C2CC3C4N(C)c5ccc(Br)cc5C45CC(C2C5O)[N+]3(C)C1O` (stereo not drawn) [Example 1.b, Nb-methyl-10-bromosandwicinium hydrogen tartrate], the LD50 at 168 h in data set [1] (setting [5]) is 325 µmol/kg. Moreover, the LD50 at 168 h in data set [1] (po, read-out: LD50 p.o.) is 1910 µmol/kg. Also, the “Min. Symptom-dose” value in data set [2] was 11 µmol/kg. Besides, in data set [3] (setting [6]), the IC25 was 20.2 µM and the EC25 is 3.2 µM. In addition, in data set [3], the “ratio between contraction force-reducing dose and functional refractory period-prolonging dose (CF/FRP)” value was found to be 6.4.

As for `CCC[N+]12C(O)C(CC)C3CC1C1N(C)c4ccc(Br)cc4C14CC2C3C4O` (stereo not drawn) [Example 2.b, Nb-n-propyl-10-bromosandwicinium hydrogen tartrate], in data set [1] (setting [5]), the LD50 at 168 h stood at 101 µmol/kg. In data set [4], the LD50 p.o. is 1133 µmol/kg. In data set [2], the “Min. Symptom-dose” value was found to be 42 µmol/kg. Besides, in data set [3] (setting [6]), the IC25 came out at 4.7 µM and the EC25 was found to be 1.4 µM. The “ratio between contraction force-reducing dose and functional refractory period-prolonging dose (CF/FRP)” value in data set [3] is listed as 3.3.

As to `CCCCCC[N+]12C(O)C(CC)C3CC1C1N(C)c4ccc(Br)cc4C14CC2C3C4O` (stereo not drawn) [Example 4.b, Nb-n-hexyl-10-bromosandwicinium hydrogen tartrate], the LD50 at 168 h in data set [1] (setting [5]) came out at 112 µmol/kg. The LD50 at 168 h in data set [1] (po, read-out: LD50 p.o.) is above 2300 µmol/kg. Further, in data set [2], the “Min. Symptom-dose” value is 39 µmol/kg. In data set [3] (setting [6]), the IC25 amounted to 2 µM and the EC25 is 4.3 µM. Also, the “ratio between contraction force-reducing dose and functional refractory period-prolonging dose (CF/FRP)” value in data set [3] is given as 0.5.

Consider `CCC1C2CC3C4N(C)c5ccc(Br)cc5C45CC(C2C5O)[N+]3(CC(O)CN2CCCCC2)C1O` (stereo not drawn) [Example 8, Nb-[2-hydroxy-3-(1-piperidinyl)propyl]-10-bromosandwicinium bishydrogen tartrate], for which, in data set [1] (setting [5]), the LD50 at 168 h came out at 169 µmol/kg. Besides, the LD50 at 168 h in data set [1] (po, read-out: LD50 p.o.) is 1190 µmol/kg. Further, the “Min. Symptom-dose” value in data set [2] stood at 59 µmol/kg. Besides, in data set [3] (setting [6]), the IC25 worked out at 3.4 µM and the EC25 is 8.3 µM. In addition, the “ratio between contraction force-reducing dose and functional refractory period-prolonging dose (CF/FRP)” value in data set [3] stood at 0.4.

In the case of `CCC[N+]12C(O)C(CC)C3CC1C1N(C)c4ccc(Br)cc4C14CC2C3C4O` (stereo not drawn) [Example 12.b, Nb-n-propyl-10-bromoisosandwicinium hydrogen tartrate], in data set [4] (intraperitoneal), the LD50 i.p. was determined as 118 µmol/kg. The same molecule displayed an LD50 p.o. in data set [4] of 566 µmol/kg. Further, in data set [2], the “Min. Symptom-dose” value came out at 10 µmol/kg. In addition, the “ratio between contraction force-reducing dose and functional refractory period-prolonging dose (CF/FRP)” value in data set [3] stood at 3.6. Also, in data set [3] (setting [6]), the “CF (concentration reducing contraction force to 75% of starting value)” value is 6.5 µmol/L and the “FRP (concentration prolonging functional refractory period to 125% of starting value)” value was determined as 1.8 µmol/L.

For `CCC[N+]12C(O)C(CC)C3CC1C1N(C)c4ccccc4C14CC2C3C4O` (stereo not drawn) [Neo-Gilurytmal, Nb -propylajmalinium hydrogen tartrate, reference compound], the 50% lethal dose (LD50) at 168 h in data set [1] (setting [5]) was found to be 41 µmol/kg. The median lethal dose (LD50) at 168 h in data set [1] (po, read-out: LD50 p.o.) was found to be 65 µmol/kg. Also, the “Min. Symptom-dose” value in data set [2] turned out to be 12 µmol/kg. For the same molecule, in data set [3] (setting [6]), the IC25 came out at 0.26 µM and the EC25 is 1.8 µM. For the same molecule, the “ratio between contraction force-reducing dose and functional refractory period-prolonging dose (CF/FRP)” value in data set [3] came out at 0.15.
